Data from patent US6696404B1, “Antibacterial composition having xanthorrizol” (LG Household & Healthcare, priority 1999, dated 2004).
Values after ≈ are worked out from the molar mass of the structure shown.

Key:
Streptococcus mutans [1] = assay: Minimum inhibitory concentration of active fractions; type: cell-based
Procedure: The crude extract, prepared in Example 1-1 was applied to a silica gel column chromatography: the crude extract was applied to a column chromatography(5×43 cm) filled with silica gel(Merck, U.S.A.) of 70 to 230 mesh, and eluted with a mixed gradient of hexane and ethylacetate (10:1→3:1→1:1). Then, thin layer chromatography(TLC) was performed with the active fractions obtained in the course of chromatographic procedure to give 8 different fractions(fractions I to VIII ) with similar retention on the TLC plate. Antibacterial activity of the fractions was measured in terms of minimum inhibitory concentration(MIC), and compared to that of vancomycin.

[2] = Antibacterial activity of acetylated single compound; type: cell-based; details: acetylated form
Procedure: Since fraction II had some impurities, acetylation of the fraction was carried out to change its polarity as a procedure to obtain a single compound with antibacterial activity: 0.5 g of fraction II was dissolved in 5 ml pyridine, added with 5 ml of acetic anhydride in a drop-wise manner at ice-cold temperature, and stirred at room temperature for more than 15 hours. The reactant was subjected to partition extraction with 100 ml of ice-cold water once, and subsequently 100 ml of ethylacetate twice. The ethylacetate phase thus obtained was washed with 5% HCl, NaHCO3 and NaCl, dehydrated with anhydrous MgSO4, filtered and condensed under a reduced pressure. The resultant was finally applied onto a silica gel column(4.7×50 cm), and eluted with a solvent mixture of hexane and ethylacetate(15:1, v/v) to give an acetylated single compound. […] Then, 2 ml of 5% KOH was added to the compound, reacted with stirring for more than 2 hours, and neutralized using cation exchange resin(DOWEX50WX4-400), followed by filtration and condensation to give a single isolated compound. Thereafter, its molecular weight was measured with EI-MS(VG Platform II, FISIONS, 15 eV), and chemical identification was conducted using analytical instruments of ^1H-NMR, ^13C-NMR(400 MHz, CDCl3) and IR(Perkin Elmer spectrum I , DTGS detector). […]

Propionibacterium acnes = assay: Viable cell count after xanthorrizol treatment; type: cell-based; details: xanthorrizol 0.002%; 37° C.
Procedure: To measure the antibacterial activity of xanthorrizol, it was dissolved in DMSO to give specimens with a concentration of 0.001%, 0.0015% and 0.002%, respectively, and incubated with test microorganisms([…] CFU/ml) at 37° C. for 1, 2, 5, and 10 hours, respectively. Then, they were subjected to serial 10-fold dilution, incubated with an acne-causing pathogen, Propionibacterium acnes for 24 to 48 hours, and counted the viable cell number of the pathogen. FIG. 2 is a graph showing antibacterial activity of xanthorrizol in terms of viable cell numbers, where ♦ represents DMSO, control; ▪, 0.001% crude extract; ▾, 0.0015% crude extract; x, 0.002% crude extract, respectively.

Streptococcus mutans [3] = assay: Viable cell count after xanthorrizol treatment; type: cell-based; details: xanthorrizol 0.0004%(4 μg/ml); 37° C.
Procedure: Xanthorrizol was also tested for Streptococcus mutans in a similar manner as described above: xanthorrizol was dissolved in DMSO to give specimens with a concentration of 0.0002%, 0.0004% and 0.0008%, respectively. Then, the specimens were incubated with the microorganism at 37° C. for 1, 2, 5 and 10 minutes, respectively, and subjected to serial 10-fold dilution. After the incubation with the pathogen, viable cell number for Streptococcus mutans was counted. FIG. 3 is a graph showing antibacterial activity of xanthorrizol against Streptococcus mutans in terms of viable cell number, where ♦ represents DMSO, control; ▪, 0.0002% crude extract; Δ, 0.0004% crude extract; x, 0.0008% crude extract, respectively.

[4] = test system: Actinomyces viscosus ATCC 15988; assay: MIC by 2-fold dilution; type: cell-based; details: ATCC15988, 2×10^5 CFU/ml, 30 to 37° C., more than 24 hours
Procedure: (§1) In addition, minimum inhibitory concentration(MIC, μg/ml) for various microorganisms was determined by performing 2-fold dilution: first, 1 ml of medium was taken into each tube, and 1 ml of xanthorrizol(0.05% in DMSO) was added to only one tube to make 2-fold dilution. Then, serial 2-fold dilution was further carried out for the rest of the tubes, starting from the tube containing xanthorrizol. 100 μl of microorganism was added into each tube prepared by the 2-fold dilution to contain a final cell number of 2×10^5 CFU/ml, and incubated at 30 to 37° C. for more than 24 hours to determine minimum inhibitory concentrations for various test microorganisms(see: Table 12).

[5] = test system: Bifidobacterium bifidum ATCC 29521; assay: MIC by 2-fold dilution; type: cell-based; details: ATCC29521, 2×10^5 CFU/ml, 30 to 37° C., more than 24 hours
Procedure: as §1

[6] = test system: Candida albicans ATCC 10231; assay: MIC by 2-fold dilution; type: cell-based; details: ATCC10231, 2×10^5 CFU/ml, 30 to 37° C., more than 24 hours
Procedure: as §1

[7] = test system: Candida glabrata IFO 0622; assay: MIC by 2-fold dilution; type: cell-based; details: Nakaseomyces glabratus, IFO0622; 2×10^5 CFU/ml; 30 to 37° C., more than 24 hours
Procedure: as §1

[8] = test system: Cladosporium cladosporioides IFO 6348; assay: MIC by 2-fold dilution; type: cell-based; details: IFO6348, 2×10^5 CFU/ml, 30 to 37° C., more than 24 hours
Procedure: as §1

[9] = test system: Enterococcus faecalis ATCC 19433; assay: MIC by 2-fold dilution; type: cell-based; details: ATCC19433, 2×10^5 CFU/ml, 30 to 37° C., more than 24 hours
Procedure: as §1

[10] = test system: Lactobacillus aciophilus ATCC 4356; assay: MIC by 2-fold dilution; type: cell-based; details: ATCC4356, 2×10^5 CFU/ml, 30 to 37° C., more than 24 hours
Procedure: as §1

[11] = test system: Lactobacillus casei ATCC 4646; assay: MIC by 2-fold dilution; type: cell-based; details: Lacticaseibacillus casei, ATCC4646; 2×10^5 CFU/ml; 30 to 37° C., more than 24 hours
Procedure: as §1

[12] = test system: Penicilium chrysogenum IFO 5472; assay: MIC by 2-fold dilution; type: cell-based; details: 2×10^5 CFU/ml; 30 to 37° C., more than 24 hours
Procedure: as §1

[13] = test system: Penicilium citrinum IFO 6352; assay: MIC by 2-fold dilution; type: cell-based; details: 2×10^5 CFU/ml; 30 to 37° C., more than 24 hours
Procedure: as §1

[14] = test system: Pityrosporum pacchydermatis ATCC 14522; assay: MIC by 2-fold dilution; type: cell-based; details: 2×10^5 CFU/ml; 30 to 37° C., more than 24 hours
Procedure: as §1

[15] = test system: Porphyromonas gingivalis W 50; assay: MIC by 2-fold dilution; type: cell-based; details: W50, 2×10^5 CFU/ml, 30 to 37° C., more than 24 hours
Procedure: as §1

[16] = test system: Propionibacterium acnes ATCC 6919; assay: MIC by 2-fold dilution; type: cell-based; details: Cutibacterium acnes, ATCC6919; 2×10^5 CFU/ml; 30 to 37° C., more than 24 hours
Procedure: as §1

[17] = test system: Saccharomyces cerevisiae ATCC 9763; assay: MIC by 2-fold dilution; type: cell-based; details: ATCC9763, 2×10^5 CFU/ml, 30 to 37° C., more than 24 hours
Procedure: as §1

[18] = test system: Salmonella typhimurium IFO 12529; assay: MIC by 2-fold dilution; type: cell-based; details: Salmonella enterica; 2×10^5 CFU/ml; 30 to 37° C., more than 24 hours
Procedure: as §1

[19] = test system: Staphylococcus aureus ATCC 12600; assay: MIC by 2-fold dilution; type: cell-based; details: ATCC12600, 2×10^5 CFU/ml, 30 to 37° C., more than 24 hours
Procedure: as §1

[20] = test system: Streptococcus mutans ATCC 25175; assay: MIC by 2-fold dilution; type: cell-based; details: ATCC25175, 2×10^5 CFU/ml, 30 to 37° C., more than 24 hours
Procedure: as §1

[21] = test system: Streptococcus salivarius ATCC 9758; assay: MIC by 2-fold dilution; type: cell-based; details: ATCC9758, 2×10^5 CFU/ml, 30 to 37° C., more than 24 hours
Procedure: as §1

[22] = test system: Streptococcus sanguis ATCC 35105; assay: MIC by 2-fold dilution; type: cell-based; details: ATCC35105, 2×10^5 CFU/ml, 30 to 37° C., more than 24 hours
Procedure: as §1

[23] = test system: Streptococcus sobrinus ATCC 27351; assay: MIC by 2-fold dilution; type: cell-based; details: ATCC27351, 2×10^5 CFU/ml, 30 to 37° C., more than 24 hours
Procedure: as §1

[24] = test system: Streptomyces bikiniensis ATCC 11062; assay: MIC by 2-fold dilution; type: cell-based; details: ATCC11062, 2×10^5 CFU/ml, 30 to 37° C., more than 24 hours
Procedure: as §1

Streptococcus mutans [25] = assay: Thermal stability: well diffusion analysis after heating; type: cell-based; details: 0.1% in DMSO heated 30 minutes
Procedure: Xanthorrizol was dissolved in DMSO to prepare specimens with a concentration of 0.1%. The specimens were heated for 30 minutes at the temperature of 60° C., 70° C., 80° C., 90° C., 100° C. and 121° C., respectively. Then, antibacterial activity against Streptococcus mutans was determined for each specimen by well diffusion analysis, whose results are shown in Table 13.

Streptococcus mutans [26] = assay: Efflux of intracellular macromolecules and ions after xanthorrizol treatment; type: cell-based; details: 5 and 10 μg/ml xanthorrizol; FIGS. 4a, 4b, 5a, 5b
Procedure: Streptococcus mutans was treated with 5 and 10 μg/ml of xanthorrizol for 1, 2, 5 and 10 minutes, respectively, to examine the efflux of intracellular macromolecules and ions by the xanthorrizol-mediated cell damage. FIGS. 4a and 4b are graphs showing the efflux of neucleic acid and protein from Streptococcus mutans after xanthorrizol treatment, and FIGS. 5a and 5b, calcium efflux and magnesium efflux, where ♦ represents 0.1% DMSO, control; ▪, Streptococcus mutans treated with 5 μg/ml xanthorrizol; •, Streptococcus mutans treated with 10 μg/ml xanthorrizol, respectively.

the pathogens = assay: Change in cell morphology (TEM) after xanthorrizol treatment; type: cell-based; details: 10 μg/ml xanthorrizol for 30 minutes
Procedure: To assess the extent of xanthorrizol-mediated cell damage, 10 μg/ml xanthorrizol was treated to the pathogens for 30 minutes. […] Further, it was assumed that through the efflux of intracellular macromolecules and ions, the permeability of cell wall is increased to accelerate the efflux of intracellular components, which in turn inactivates cellular enzymes and causes the malfunction of cell wall.

human skin = assay: Skin safety patch test; type: in vivo

CN[C@H](CC(C)C)C(=O)N[C@H]1C(=O)N[C@@H](CC(N)=O)C(=O)N[C@H]2C(=O)N[C@H]3C(=O)N[C@H](C(=O)N[C@H](C(=O)O)c4cc(O)cc(O)c4-c4cc3ccc4O)[C@H](O)c3ccc(c(Cl)c3)Oc3cc2cc(c3O[C@@H]2O[C@H](CO)[C@@H](O)[C@H](O)[C@H]2O[C@H]2C[C@](C)(N)[C@H](O)[C@H](C)O2)Oc2ccc(cc2Cl)[C@H]1O [Vancomycin, vancomycin]
MIC (Streptococcus mutans [1]): 1 µg/mL (≈ 0.69 µM)

CC(=O)Oc1cc(C(C)CCC=C(C)C)ccc1C (stereo not shown) [acetylated single compound]
antibacterial activity [2]: no antibacterial activity

CC(C)=CCC[C@@H](C)c1ccc(C)c(O)c1 [xanthorrizol, 1,3,5,10-bisabolatetraen-3-ol]
Eradication of the microorganism (viable cell number, FIG. 2) (Propionibacterium acnes): eradicated almost completely in one hour
Eradication of the microorganism (viable cell number, FIG. 3) (Streptococcus mutans [3]): eradicated almost completely in one minute
MIC [4]: 16 µg/mL (≈ 73.3 µM)
MIC [5]: 250 µg/mL (≈ 1150 µM)
MIC [6]: 125 µg/mL (≈ 573 µM)
MIC [7]: 125 µg/mL (≈ 573 µM)
MIC [8]: 500 µg/mL (≈ 2290 µM)
MIC [9]: 16 µg/mL (≈ 73.3 µM)
MIC [10]: 500 µg/mL (≈ 2290 µM)
MIC [11]: 250 µg/mL (≈ 1150 µM)
MIC [12]: 125 µg/mL (≈ 573 µM)
MIC [13]: 250 µg/mL (≈ 1150 µM)
MIC [14]: 125 µg/mL (≈ 573 µM)
MIC [15]: 32 µg/mL (≈ 147 µM)
MIC [16]: 16 µg/mL (≈ 73.3 µM)
MIC [17]: 250 µg/mL (≈ 1150 µM)
MIC [18]: 62.5 µg/mL (≈ 286 µM)
MIC [19]: 62.5 µg/mL (≈ 286 µM)
MIC [20]: 2 µg/mL (≈ 9.16 µM)
MIC [21]: 4 µg/mL (≈ 18.3 µM)
MIC [22]: 4 µg/mL (≈ 18.3 µM)
MIC [23]: 4 µg/mL (≈ 18.3 µM)
MIC [24]: 32 µg/mL (≈ 147 µM)
Diameter of Clear Zone (Streptococcus mutans [25]; Treatment Temp. 60 ° C.): 17 mm
Diameter of Clear Zone (Streptococcus mutans [25]; Treatment Temp. 70 ° C.): 16 mm
Diameter of Clear Zone (Streptococcus mutans [25]; Treatment Temp. 80 ° C.): 17 mm
Diameter of Clear Zone (Streptococcus mutans [25]; Treatment Temp. 90 ° C.): 17 mm
Diameter of Clear Zone (Streptococcus mutans [25]; Treatment Temp. 100 ° C.): 18 mm
Diameter of Clear Zone (Streptococcus mutans [25]; Treatment Temp. 121 ° C.): 17 mm
efflux of protein, neucleic acid and ion (Streptococcus mutans [26]): increased dramatically in 5 minutes
cell morphology (TEM) (the pathogens): cell wall expansion was detected, followed by cell disruption
adverse effects such as erythema, scarring or edema on skin (human skin): do not cause adverse effects
